molecular target: Human Factor D (Homo sapiens (Human), UniProt P00746); experiment: Human Factor D Assay; format: biochemical; conditions: Factor D inhibition, assay of Example 10; read-out: IC5 (Stars)
How it was run: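 Serum-purified Factor D (80 nM final) preincubated 5 min at room temperature with compound in 50 mM Tris, 1 M NaCl, pH 7.5. Z-L-Lys-SBz and DTNB added at 100 μM each; A405 followed every 30 s for 30 min. IC50 from nonlinear regression of rates versus concentration.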

Human Factor D, sequence (P00746 26-253): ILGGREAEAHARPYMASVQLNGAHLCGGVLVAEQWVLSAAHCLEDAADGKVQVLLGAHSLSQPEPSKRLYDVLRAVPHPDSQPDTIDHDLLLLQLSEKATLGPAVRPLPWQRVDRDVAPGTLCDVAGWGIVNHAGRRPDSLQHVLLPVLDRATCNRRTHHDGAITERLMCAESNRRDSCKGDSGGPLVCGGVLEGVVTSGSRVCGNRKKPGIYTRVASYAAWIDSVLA

`Cc1ncc(-c2cc3c(C(N)=O)nn(CC(=O)N4[C@H](C(=O)Nc5nc(Br)ccc5C)C[C@@]5(C)C[C@@H]45)c3cn2)cn1` [Compound 361, 1-(2-((1R,3S,5R)-3-((6-bromo-3-methylpyridin-2-yl)carbamoyl)-5-methyl-2-azabicyclo[3.1.0]hexan-2-yl)-2-oxoethyl)-5-(2-methylpyrimidin-5-yl)-1H-pyrazolo[3,4-c]pyridine-3-carboxamide] and `Cc1ncc(-c2cc3c(C(=O)C(F)(F)F)cn(CC(=O)N4[C@H](C(=O)Nc5nc(Br)ccc5C)C[C@@]5(C)C[C@@H]45)c3cn2)cn1` [Compound 470, (1R,3S,5R)-N-(6-bromo-3-methylpyridin-2-yl)-5-methyl-2-(2-(5-(2-methylpyrimidin-5-yl)-3-(2,2,2-trifluoroacetyl)-1H-pyrrolo[2,3-c]pyridin-1-yl)acetyl)-2-azabicyclo[3.1.0]hexane-3-carboxamide] cannot be ordered by IC50: < 1000 nM for the first, < 1000 nM for the second.

Compared with `CC(=O)c1nn(CC(=O)N2[C@H](C(=O)NCC(=O)O)C[C@@]3(C)C[C@@H]23)c2c(C)cc(-c3cnc(C)nc3)cc12` [Compound 495, ((1R,3S,5R)-2-(2-(3-acetyl-7-methyl-5-(2-methylpyrimidin-5-yl)-1H-indazol-1-yl)acetyl)-5-methyl-2-azabicyclo[3.1.0]hexane-3-carbonyl)glycine], `CC(=O)c1nn(CC(=O)N2[C@H](C(=O)Nc3cc(C(=O)O)cc(Br)n3)C[C@@]3(C)C[C@@H]23)c2ccc(-c3cnc(C)nc3)cc12` [Compound 493, 2-[(1R,3S,5R)-2-{2-[3-Acetyl-5-(2-methylpyrimidin-5-yl)indazol-1-yl]acetyl}-5-methyl-2-azabicyclo[3.1.0]hexane-3-amido]-6-bromopyridine-4-carboxylic Acid] is lower in IC50: 1000 to 10000 nM for the first, < 1000 nM for the second.

`CC(=O)c1nn(CC(=O)N2[C@H](C(=O)N[C@H](C)c3ccccc3)C[C@@]3(C)C[C@@H]23)c2ccc(-c3cnc(C)nc3)cc12` [Compound 558, (1R,3S,5R)-2-(2-(3-acetyl-5-(2-methylpyrimidin-5-yl)-1H-indazol-1-yl)acetyl)-5-methyl-N-((R)-1-phenylethyl)-2-azabicyclo[3.1.0]hexane-3-carboxamide] and `CC(=O)c1nn(CC(=O)N2[C@H](C(=O)Nc3cc(-c4ccccc4O)cc(Br)n3)C[C@@]3(C)C[C@@H]23)c2ccc(-c3cnc(C)nc3)cc12` [Compound 556, (1R,3S,5R)-2-(2-(3-acetyl-5-(2-methylpyrimidin-5-yl)-1H-indazol-1-yl)acetyl)-N-(6-bromo-4-(2-hydroxyphenyl)pyridin-2-yl)-5-methyl-2-azabicyclo[3.1.0]hexane-3-carboxamide] cannot be ordered by IC50: < 1000 nM for the first, < 1000 nM for the second.

`CC(=O)c1nn(CC(=O)N2[C@H](C(=O)Nc3nc(Br)ccc3C)C[C@@]3(Cn4cccn4)C[C@@H]23)c2ccc(-c3cnc(C)nc3)cc12` [Compound 310, (1R,3S,5R)-5-((1H-Pyrazol-1-yl)methyl)-2-(2-(3-acetyl-5-(2-methylpyrimidin-5-yl)-1H-indazol-1-yl)acetyl)-N-(6-bromo-3-methylpyridin-2-yl)-2-azabicyclo[3.1.0]hexane-3-carboxamide] and `CC(=O)c1nn(CC(=O)N2[C@H](C(=O)Nc3nc(Br)ccc3C)C[C@@]3(Cc4ncc(C(C)C)s4)C[C@@H]23)c2ccc(-c3cnc(C)nc3)cc12` [Compound 349, (1R,3S,5R)-2-(2-(3-acetyl-5-(2-methylpyrimidin-5-yl)-1H-indazol-1-yl)acetyl)-N-(6-bromo-3-methylpyridin-2-yl)-5-((5-isopropylthiazol-2-yl)methyl)-2-azabicyclo[3.1.0]hexane-3-carboxamide] cannot be ordered by IC50: < 1000 nM for the first, < 1000 nM for the second.

`CC(=O)c1nn(CC(=O)N2[C@H](C(=O)Nc3nc(Br)ccc3C)C[C@@]3(Cc4nc(C)no4)C[C@@H]23)c2c(C)cc(-c3cnc(C)nc3)cc12` [Compound 372, (1R,3S,5R)-2-(2-(3-acetyl-7-methyl-5-(2-methylpyrimidin-5-yl)-1H-indazol-1-yl)acetyl)-N-(6-bromo-3-methylpyridin-2-yl)-5-((3-methyl-1,2,4-oxadiazol-5-yl)methyl)-2-azabicyclo[3.1.0]hexane-3-carboxamide] was tested, and the IC50 was < 1000 nM.

same assay, conditions: Table 6; Factor D 80 nM, substrate Z-L-Lys-SBz; read-out: IC50

First: Cc1ncc(-c2cc(C)c3c(c2)c(C(C)O)nn3CC(=O)N2C[C@H]3C[C@H]3[C@H]2C(=O)Nc2nc(Br)ccc2C)cn1 (stereo partly drawn) [Compound 115, (1R,2S,5S)-N-(6-bromo-3-methylpyridin-2-yl)-3-(2-(3-(1-hydroxyethyl)-7-methyl-5-(2-methylpyrimidin-5-yl)-1H-indazol-1-yl)acetyl)-3-azabicyclo[3.1.0]hexane-2-carboxamide]
Second: CC(=O)c1nn(CC(=O)N2[C@H](C(=O)Nc3nc(Br)cc(C)c3C(F)F)C[C@@]3(C)C[C@@H]23)c2ccc(-c3cnc(C)nc3)cc12 [Compound 187, (1R,3S,5R)-2-(2-(3-Acetyl-5-(2-methylpyrimidin-5-yl)-1H-indazol-1-yl)acetyl)-N-(6-bromo-3-(difluoromethyl)-4-methylpyridin-2-yl)-5-methyl-2-azabicyclo[3.1.0]hexane-3-carboxamide]
The IC50 of the first is higher: 1000 to 10000 nM for the first, < 1000 nM for the second.

`Cc1ncc(-c2ccc3c(c2)c(C(N)=O)nn3CC(=O)N2C[C@H]3C[C@H]3[C@H]2C(=O)Nc2nc(Br)ccc2C)cn1` [Compound 56, 1-(2-((1R,2S,5S)-2-((6-Bromo-3-methylpyridin-2-yl)carbamoyl)-3-azabicyclo[3.1.0]hexan-3-yl)-2-oxoethyl)-5-(2-methylpyrimidin-5-yl)-1H-indazole-3-carboxamide] and `CC(=O)c1nn(CC(=O)N2[C@H](C(=O)Nc3nc(Br)ccc3C)C[C@@]3(Cn4ccnn4)C[C@@H]23)c2ccc(-c3cnc(C)nc3)cc12` [Compound 203, (1R,3S,5R)-5-((1H-1,2,3-triazol-1-yl)methyl)-2-(2-(3-acetyl-5-(2-methylpyrimidin-5-yl)-1H-indazol-1-yl)acetyl)-N-(6-bromo-3-methylpyridin-2-yl)-2-azabicyclo[3.1.0]hexane-3-carboxamide] cannot be ordered by IC50: < 1000 nM for the first, < 1000 nM for the second.

`CC(=O)c1nn(CC(=O)N2[C@H](C(=O)Nc3nc(Br)ccc3CN3CCOCC3)C[C@@]3(C)C[C@@H]23)c2ccc(-c3cnc(C)nc3)cc12` [Compound 138, (1R,3S,5R)-2-(2-(3-Acetyl-5-(2-methylpyrimidin-5-yl)-1H-indazol-1-yl)acetyl)-N-(6-bromo-3-(morpholinomethyl)pyridin-2-yl)-5-methyl-2-azabicyclo[3.1.0]hexane-3-carboxamide] and `CC(=O)c1nn(CC(=O)N2C[C@H](F)C[C@H]2C(=O)Nc2nc(Br)ccc2CC#N)c2ccc(-c3cnc(C)nc3)cc12` [Compound 23, (2S,4R)-1-(2-(3-Acetyl-5-(2-methylpyrimidin-5-yl)-1H-indazol-1-yl)acetyl)-N-(6-bromo-3-(cyanomethyl)pyridin-2-yl)-4-fluoropyrrolidine-2-carboxamide] cannot be ordered by IC50: < 1000 nM for the first, < 1000 nM for the second.

“(1R,3S,5S)-2-(2-(3-Acetyl-5-(2-methylpyrimidin-5-yl)-1H-indazol-1-yl)acetyl)-N-(6-bromo-3-(methoxymethyl)pyridin-2-yl)-5-(methoxymethyl)-2-azabicyclo[3.1.0]hexane-3-carboxamide [Compound 49]” and `CC(=O)c1nn(CC(=O)N2C3CC3(CN3CCC3)C[C@H]2C(=O)Nc2nc(Br)ccc2C)c2ccc(-c3cnc(C)nc3)cc12` (stereo partly drawn) [Compound 6, (3S)-2-(2-(3-Acetyl-5-(2-methylpyrimidin-5-yl)-1H-indazol-1-yl)acetyl)-5-(azetidin-1-ylmethyl)-N-(6-bromo-3-methylpyridin-2-yl)-2-azabicyclo[3.1.0]hexane-3-carboxamide] cannot be ordered by IC50: < 1000 nM for the first, < 1000 nM for the second.

First: CC(=O)c1nn(CC(=O)N2[C@H](C(=O)O)C[C@@]3(C)C[C@@H]23)c2ccc(-c3cnc(C)nc3)cc12 [Compound 40, (1R,3S,5R)-2-(2-(3-acetyl-5-(2-methylpyrimidin-5-yl)-1H-indazol-1-yl)acetyl)-5-methyl-2-azabicyclo[3.1.0]hexane-3-carboxylic acid]
Second: CC(=O)c1nn(CC(=O)N2[C@H](C(=O)Nc3nc(Br)ccc3C)C[C@@]3(CNC(=O)C4=C(F)CCC4)C[C@@H]23)c2c(C)cc(-c3cnc(C)nc3)cc12 [Compound 95, (1R,3S,5R)-2-(2-(3-Acetyl-7-methyl-5-(2-methylpyrimidin-5-yl)-1H-indazol-1-yl)acetyl)-N-(6-bromo-3-methylpyridin-2-yl)-5-((2-fluorocyclopent-1-enecarboxamido)methyl)-2-azabicyclo[3.1.0]hexane-3-carboxamide]
The IC50 of the first is higher: > 10000 nM for the first, < 1000 nM for the second. The second is the more potent here.

`C=CCOCc1ccc(Br)nc1NC(=O)[C@@H]1C[C@@]2(C=C)C[C@H]2N1C(=O)Cn1nc(C(C)=O)c2cc(-c3cnc(C)nc3)ccc21` [Compound 134, (1R,3S,5R)-2-(2-(3-Acetyl-5-(2-methylpyrimidin-5-yl)-1H-indazol-1-yl)acetyl)-N-(3-((allyloxy)methyl)-6-bromopyridin-2-yl)-5-vinyl-2-azabicyclo[3.1.0]hexane-3-carboxamide] and `CC(=O)c1nn(CC(=O)N2[C@H](C(=O)Nc3nc(Cl)ccc3CN3CCOCC3)C[C@@]3(C)C[C@@H]23)c2ccc(-c3cnc(C)nc3)cc12` [Compound 139, (1R,3S,5R)-2-(2-(3-Acetyl-5-(2-methylpyrimidin-5-yl)-1H-indazol-1-yl)acetyl)-N-(6-chloro-3-(morpholinomethyl)pyridin-2-yl)-5-methyl-2-azabicyclo[3.1.0]hexane-3-carboxamide] cannot be ordered by IC50: < 1000 nM for the first, < 1000 nM for the second.

same assay, conditions: Table 8; Factor D 80 nM, substrate Z-L-Lys-SBz; read-out: IC50

For `Cc1ncc(-c2ccc3c(c2)c(C(=O)NCC(C)C)nn3CC(=O)N2[C@H](C(=O)Nc3nc(Br)ccc3C)C[C@@]3(C)C[C@@H]23)cn1` [Compound 500, 1-(2-((1R,3S,5R)-3-((6-bromo-3-methylpyridin-2-yl)carbamoyl)-5-methyl-2-azabicyclo[3.1.0]hexan-2-yl)-2-oxoethyl)-N-isobutyl-5-(2-methylpyrimidin-5-yl)-1H-indazole-3-carboxamide], the IC50 was < 1000 nM.

Source: patent publication US11084800B2 (Achillion Pharmaceuticals, Inc., priority 2017, dated 2021)
